According to US11814396B2, “Sesquiterpenoid analogs” (Purdue Research Foundation, priority 2018, dated 2023):
Blank lines part the entries; values can stand above or below the compound they belong to.

Assays:
[1] = tested on: production of nitric oxide; conditions: reported; cited from earlier work
SHP2 = target: T1, SHP2 (Homo sapiens, UniProt Q06124); assay: PTP inhibition study with pNPP as substrate; assay type: biochemical; conditions: pH 7, 25° C.; for IC50: 15 min
T1 sequence (Q06124 1-593): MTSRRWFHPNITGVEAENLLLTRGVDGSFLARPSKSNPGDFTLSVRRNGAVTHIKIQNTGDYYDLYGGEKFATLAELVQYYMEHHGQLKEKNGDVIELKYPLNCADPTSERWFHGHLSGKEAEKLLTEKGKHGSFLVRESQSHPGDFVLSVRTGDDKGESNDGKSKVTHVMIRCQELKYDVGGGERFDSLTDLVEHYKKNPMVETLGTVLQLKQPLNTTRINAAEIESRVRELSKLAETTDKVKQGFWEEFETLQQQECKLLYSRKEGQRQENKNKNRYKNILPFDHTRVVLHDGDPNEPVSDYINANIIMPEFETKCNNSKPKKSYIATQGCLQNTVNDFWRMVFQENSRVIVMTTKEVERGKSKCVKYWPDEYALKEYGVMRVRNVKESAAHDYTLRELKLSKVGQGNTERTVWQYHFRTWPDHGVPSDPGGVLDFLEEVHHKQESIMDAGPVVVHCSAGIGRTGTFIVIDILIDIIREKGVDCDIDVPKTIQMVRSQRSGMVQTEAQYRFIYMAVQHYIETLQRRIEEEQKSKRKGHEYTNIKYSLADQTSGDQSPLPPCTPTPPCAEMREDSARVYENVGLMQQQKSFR
Method: PTP Inhibition Study. Abies sesquiterpenoids and their analogs were evaluated for their ability to inhibit the reaction catalyzed by PTP1B and SHP2 using p-nitrophenyl phosphatae (pNPP) as a substrate at pH 7 and 25° C. […] The reaction was quenched after 3 (PTP1B) or 15 (SHP2) min by the addition of 25 μl of 5N NaOH. The absorbance at 405 nm was detected by a Spectra MAX 384 PLUS microplate spectrophotometer (Molecular Devices). IC50 values were calculated by fitting the absorbance at 405 nm versus inhibitor concentration to the following equation: A1/A0=IC50/(IC50+[I]) wherein A1 is the absorbance at 405 nm of the sample in the presence of inhibitor; A0 is the absorbance at 405 nm in the absence of inhibitor; and [I] is the concentration of the inhibitor.

POLE3-GFP = target: T2, POLE3-GFP (Homo sapiens, UniProt Q9NRF9); assay: Gel-based determination of kinetic parameters Ki and kinact (Kitz and Wilson method); assay type: binding; conditions: lysate of 293T cells overexpressing WT POLE3-GFP, 37° C., competition with 30 μM Example 4
T2 construct: expressed in transfected cells; host or cells: 293T
T2 sequence (Q9NRF9 1-147): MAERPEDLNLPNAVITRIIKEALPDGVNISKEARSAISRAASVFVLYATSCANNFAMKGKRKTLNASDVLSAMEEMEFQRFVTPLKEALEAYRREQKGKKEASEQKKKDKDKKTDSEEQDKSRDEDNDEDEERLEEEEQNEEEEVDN
Method: 293T cells in a 3.5 cm Petri dish were transfected with POLE3-WT-GFP-pEXP or […] using PEI-MAX. After 24 hours, lysates were prepared as described above. Proteins (1 mg/mL, 25 μL) were incubated with indicated compounds at indicated concentrations (25× stock in DMSO) for three hours at 37° C. Subsequently, 30 μM Example 4 (25× stock in DMSO) was added for one hour at r.t. Click chemistry, reducing SDS-PAGE and visualization were performed as described above. Proteins were transferred to a PVDF membrane using a Trans-Blot Turbo transfer system (Bio-Rad). Membrane was blocked with 3% BSA in Tris-Buffered Saline with 0.1% Tween 20 (TBST) for one hour at r.t. Mouse monoclonal antibody against GFP (Roche, 1/1000 in 3% BSA in TBST) was added and incubated overnight at 4° C. Membrane was washed three times for five min. with TBST and incubated with anti-mouse Alexa Fluor 647 (Jackson ImmunoResearch Inc., 1/500 in 3% BSA in TBST) for one hour at r.t. Membrane was washed four times for five min. with TBST and visualized with an Azure Biosystems Sapphire Biomolecular Imager.
WT POLES-GFP was overexpressed in 293T cells as described above and lysate was treated with indicated concentrations of Example 2 (1 μL of 25× stock in DMSO) for 1.5, 2, 2.5, 3, 3.5 or 4 hours at 37° C. […] Images were quantified using ImageJ and the kinetic parameters were determined using GraphPad Prism (V7.02).).

POLE3 = target: T3, POLE3 (Homo sapiens, UniProt Q9NRF9); assay: Global proteomics profiling versus POLE3 knockdown; assay type: cell-based; conditions: HeLa cells
T3 construct: endogenous in cells; host or cells: HeLa
T3 sequence (Q9NRF9 1-147): T2 sequence (Q9NRF9 1-147)
From the text: To understand whether binding of Example 2 to C51 of POLE3 is productive and leads to the loss of function of this protein, POLE3 was knocked down in HeLa cells using siRNA and compared by global proteomics the protein expression profile in these cells versus cells treated with compound Example 2 or DMSO as control. […] Possibly as a compensatory effect, we also observed fourfold upregulation of POLE, another subunit of DNA polymerase ε.
Knockdown of POLE3 was achieved using RNAiMAx (Invitrogen) and POLE3 siRNA (Dharmacon) via reverse transfection according to the manual of the manufacturer. Briefly, 9 μL of 20 μM siRNA was mixed with 9 μL of RNAiMax reagent in 500 μL OptiMEM and incubated for 20 min. at r.t. […] Samples were analyzed by LC-MS/MS (see below) and the MS data was processed with MaxQuant (see below).
Peptides were resuspended in water with 0.1% formic acid (FA) and analyzed using EASY-nLC 1200 nano-UHPLC coupled to Q Exactive HF-X Quadrupole-Orbitrap mass spectrometer (Thermo Scientific). […]
The MS data was analyzed with MaxQuant (V1.6.1.0) and searched against the human proteome (Uniprot) and a common list of contaminants (included in MaxQuant). […] The minimum peptide length was set to 6 amino acids and peptide re-quantification, label-free quantification (MaxLFQ) and “match between runs” were enabled. […]

HeLa cells = assay: Visualization of DNA double strand breaks by γH2AX staining (confocal microscopy); assay type: cell-based
Method: HeLa cells were seeded (250′000 cells/mL) in a 6-well plate and reverse transfected with scrambled siRNA or POLE3 siRNA using RNAiMAX for two days. Cells were trypsinizned, seeded (150′000 cells/mL) in a 24-well plate containing a coverslip and left overnight to attach and grow. […] Cells were washed one time with PBS and fixed with methanol at −20° C. for 10 min. Cells were washed again two times with PBS and coverslip was transferred to a wet box.
Blocking was performed with a 5% bovine serum albumin (BSA) solution in PBS for 30 min. Cells were washed one time with PBS 0.1% BSA and rabbit antibody directed against H2AX pSer^139 (Sigma Aldrich H5912, 1/250 in PBS 0.1% BSA) was added and incubated for one hour at r.t. Cells were washed three times with PBS 0.1% BSA and incubated for one hour with anti-rabbit IgG Alexa Fluor 488 (Jackson, 1/200 in PBS 0.1% BSA). Cells were washed three times with PBS 0.1% BSA, one time with PBS, one time with water and then mounted on a slide with ProLong Gold antifade mountant with DAPI (Life Technologies). Cells were visualized with an LSM 700 confocal microscope (Zeiss).
Induced DNA damage was measured by confocal microscopy using γH2AX staining as marker.

PTP1B = target: T4, PTP1B (Homo sapiens, UniProt P18031); conditions: reported by Hu et al., Eur. J. Org. Chem. 2016; cited from earlier work
T4 sequence (P18031 1-435): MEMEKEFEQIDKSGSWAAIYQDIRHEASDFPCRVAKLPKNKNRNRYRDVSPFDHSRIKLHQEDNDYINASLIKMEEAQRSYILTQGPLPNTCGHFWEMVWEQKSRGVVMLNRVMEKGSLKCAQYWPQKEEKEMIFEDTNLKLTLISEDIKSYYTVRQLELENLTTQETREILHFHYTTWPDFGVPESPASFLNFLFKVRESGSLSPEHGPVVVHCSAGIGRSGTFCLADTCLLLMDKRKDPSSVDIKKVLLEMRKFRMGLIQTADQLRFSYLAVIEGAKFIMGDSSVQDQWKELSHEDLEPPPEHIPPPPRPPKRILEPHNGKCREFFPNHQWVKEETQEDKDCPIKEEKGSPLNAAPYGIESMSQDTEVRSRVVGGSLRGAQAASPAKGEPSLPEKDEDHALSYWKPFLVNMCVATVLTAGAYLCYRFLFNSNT

MDA-MB-231 lysate = assay: Gel-based in vitro JW-RF-001 competition of labeling with Example 4; assay type: binding; conditions: 30 μM Example 4, MDA-MB-231 lysate, one hour at r.t.
Method: MDA-MB-231 lysate (2 mg/mL, 25 μL) was treated with indicated concentrations of azide probes (Example 4) (1 μL of 25× stock in DMSO) for one hour at r.t. Click chemistry was initiated by the addition of TAMRA alkyne (Sigma-Aldrich, 30 μM, 25× stock in DMSO), tris(2-carboxyethyl)phosphine hydrochloride (TCEP, Alfa Aesar, 1 mM, fresh 50× stock in water), tris[(1-benzyl-1H-1,2,3-triazol-4-yl)methyl]amine (TBTA, Sigma-Aldrich, 100 μM, 16× stock in DMSO:tBuOH 1:4), and copper(II) sulfate (1 mM, 50× stock in water) to the lysate and incubated in the dark for one hour at r.t. SDS-PAGE reducing loading buffer (4×) was added and proteins were separated using a 10% SDS-PAGE gel. Gels were visualized using an Azure Biosystems Sapphire Biomolecular Imager, then stained using Coomassie. Images were quantified with ImageJ (V1.51).
MDA-MB-231 lysate (2 mg/mL, 25 μL) was treated with either 3 mM JW-RF-001 (1 μL of 25× stock in DMSO) or DMSO for one hour at r.t. Subsequently, lysate was incubated with 30 μM Example 4 (1 μL, of 25× stock in DMSO) for one hour at r.t. Click chemistry, reducing SDS-PAGE and visualization were performed as described above.

SMILES: CC1=C[C@@]2(C[C@H](C)[C@H]3CC=C(C)[C@@H](O[C@@H]4O[C@H](CO)[C@@H](O)[C@H](O)[C@H]4O)[C@@H]3O2)OC1=O [Abiespiroside A, abiespiroside A]
inhibitory activity against the production of nitric oxide [1]: potent inhibitory activity

SMILES: C=C1CC2(CC(C)C3CC=C(CO)C(O)C3O2)OC1=O (stereo not shown) [Example 3′]
preference for SHP2 over PTP1B (SHP2): 10 fold | IC50 (SHP2): 3.3 ± 0.1 µM

SMILES: CC1=C[C@@]2(C[C@H](C)[C@H]3CC=C(CO)C(=O)[C@@H]3O2)OC1=O [beshanzuenone C]
IC50 (PTP1B): 59.7 µM

SMILES: CC1=C[C@@]2(C[C@H](C)[C@H]3CC=C(C)C(=O)[C@@H]3O2)OC1=O [beshanzuenone D]
IC50 (PTP1B): 40.4 µM

Further lines, with some results ahead:

preference for SHP2 over PTP1B (SHP2): 10 fold | IC50 (SHP2): 33.3 ± 0.9 µM
SMILES: C=C1C[C@@]2(C[C@H](C)[C@H]3CC=C(CO)C(=O)[C@@H]3O2)OC1=O [Example 3, (2R,4S,4aR,8aR)-7-(hydroxymethyl)-4-methyl-4′-methylene-3,3′,4,4a,4′,8a-hexahydro-5′H-spiro[chromene-2,2′-furan]-5′,8(5H)-dione]

kinact (POLE3-GFP): 0.0045 s⁻¹ | Ki (POLE3-GFP; read-out: POLE3-GFP binding constant Ki): 56.9 µM | functional effect of binding on POLE3 (overlap of protein expression profile with POLE3 KD cells) (POLE3; 30 μM, 6 h treatment): leads to the loss of function of POLE3 | upregulation of POLE (POLE3; POLE3 KD and Example 2-treated (30 μM, 6 h)): fourfold | preference for SHP2 over PTP1B (SHP2): 10 fold | IC50 (SHP2): 44.9 ± 9.6 µM
SMILES: C=C1C[C@@]2(C[C@H](C)[C@H]3CC=C(C)C(=O)[C@@H]3O2)OC1=O [Example 2, (2R,4S,4aR,8aR)-4,7-dimethyl-4′-methylene-3,3′,4,4a,4′,8a-hexahydro-5′H-spiro[chromene-2,2′-furan]-5′,8(5H)-dione]
γH2AX signal, combination with etoposide versus etoposide only-treated cells (HeLa cells; 30 μM etoposide combined with 30 μM Example 2, 6 hours): significantly stronger γH2AX signal | γH2AX signal intensity, compound alone (HeLa cells; 30 μM, 6 hours): did not lead to an increase

binding of the azide probe in lysate (MDA-MB-231 lysate): binded to cysteines
SMILES: C=C1C[C@@]2(C[C@H](C)[C@H]3CC=C(CN=[N+]=[N-])C(=O)[C@@H]3O2)OC1=O [Example 4, (2R,4S,4aR,8aR)-7-(azidomethyl)-4-methyl-4′-methylene-3,3′,4,4a,4′,8a-hexahydro-5′H-spiro[chromene-2,2′-furan]-5′,8(5H)-dione]
